{
  "source": "patent US20030086872A1",
  "about": "“SUT-2 and SUT-3 genes, proteins and assays for inhibitors of lymphocyte adhesion” (priority 2001, published 2003)",
  "key": {"SUT-3": {"molecular_target": "T1, SUT-3 (Homo sapiens, UniProt Q86WA9)", "T1 construct": "The full length SLC26A11 ORF was PCR amplified from IMAGE clone; expressed in transfected cells; host or cells: Sf9 insect cells infected with recombinant baculovirus (pVL1393-SUT-3, polyhedrin promoter)", "T1 sequence (Q86WA9 1-606)": "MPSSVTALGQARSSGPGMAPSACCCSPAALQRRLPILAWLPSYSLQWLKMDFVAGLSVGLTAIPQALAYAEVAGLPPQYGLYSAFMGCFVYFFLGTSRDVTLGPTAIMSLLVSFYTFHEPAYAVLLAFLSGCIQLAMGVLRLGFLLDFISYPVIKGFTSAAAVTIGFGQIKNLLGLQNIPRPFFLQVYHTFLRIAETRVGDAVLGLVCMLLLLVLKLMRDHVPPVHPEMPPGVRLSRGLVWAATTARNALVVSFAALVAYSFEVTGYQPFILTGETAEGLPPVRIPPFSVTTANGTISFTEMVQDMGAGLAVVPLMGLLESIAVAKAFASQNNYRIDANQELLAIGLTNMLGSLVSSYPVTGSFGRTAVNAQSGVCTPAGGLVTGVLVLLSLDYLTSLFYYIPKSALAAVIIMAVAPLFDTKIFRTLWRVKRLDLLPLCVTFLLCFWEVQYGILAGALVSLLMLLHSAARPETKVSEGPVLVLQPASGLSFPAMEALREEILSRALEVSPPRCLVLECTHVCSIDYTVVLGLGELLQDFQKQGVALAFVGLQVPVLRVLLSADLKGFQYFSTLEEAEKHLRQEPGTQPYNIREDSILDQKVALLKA", "experiment": "Sulfate uptake by Sf9 insect cells infected with baculovirus expressing SUT-3", "format": "cell-based", "settings": "1 mM DIDS; uptake of 500 μM Na2SO4; Sf9 cells infected at MOI of 5", "experimental": "The full length SLC26A11 ORF was PCR amplified from IMAGE clone N^o 4793646, with 10 pmol of primers ATG-SUT-3 (5′-[…]) (SEQ ID NO: 21) and STOP-SUT-3 (5′-[…]-3′)(SEQ ID NO: 22), using 3 units of Pfu (Promega) in its reaction buffer with 400 μM dNTP. PCR cycles were 30×(94° C., 1′, 60° C., 1′, 72° C., 4′). The PCR product was then phosphorylated at its 5′ extremities using 2 units of T4 Polynucleotide Kinase (PROMEGA). 2 μg of pVL1393 vector (BD Biosciences) were digested with 10 units of EcoRI and NotI endonucleases, extremities were blunt-ended with 10 units of T4 DNA polymerase (PROMEGA) and 5′ extremities were dephosphated with 1 unit of Calf Intestine Phosphatase (Boehringer). 100 ng of purified insert and vector were then ligated together using 1 unit of T4 DNA Ligase (Biolabs). All enzymes were used according to supplier's instructions. After restriction analysis, DNA sequencing was performed using the Big Dye Sequencing Kit (Perkin Elmer) according to manufacturer's protocol. […]\nFor all experiments, 80 cm^2 flasks containing 60% confluent Sf9 cells were infected at a MOI of 5 and incubated for 3 days at 27° C. for protein expression. […] Protein concentration was evaluated using the BIO-RAD protein Assay Kit according to the manufacturer's protocol and cell-associated radioactivity was determined in a Tri-Carb 2100 liquid scintillation counter (Packard). […]"}, "SAT-1": {"molecular_target": "T2, SAT-1 (Rattus norvegicus, UniProt P45380)", "T2 sequence (P45380 1-703)": "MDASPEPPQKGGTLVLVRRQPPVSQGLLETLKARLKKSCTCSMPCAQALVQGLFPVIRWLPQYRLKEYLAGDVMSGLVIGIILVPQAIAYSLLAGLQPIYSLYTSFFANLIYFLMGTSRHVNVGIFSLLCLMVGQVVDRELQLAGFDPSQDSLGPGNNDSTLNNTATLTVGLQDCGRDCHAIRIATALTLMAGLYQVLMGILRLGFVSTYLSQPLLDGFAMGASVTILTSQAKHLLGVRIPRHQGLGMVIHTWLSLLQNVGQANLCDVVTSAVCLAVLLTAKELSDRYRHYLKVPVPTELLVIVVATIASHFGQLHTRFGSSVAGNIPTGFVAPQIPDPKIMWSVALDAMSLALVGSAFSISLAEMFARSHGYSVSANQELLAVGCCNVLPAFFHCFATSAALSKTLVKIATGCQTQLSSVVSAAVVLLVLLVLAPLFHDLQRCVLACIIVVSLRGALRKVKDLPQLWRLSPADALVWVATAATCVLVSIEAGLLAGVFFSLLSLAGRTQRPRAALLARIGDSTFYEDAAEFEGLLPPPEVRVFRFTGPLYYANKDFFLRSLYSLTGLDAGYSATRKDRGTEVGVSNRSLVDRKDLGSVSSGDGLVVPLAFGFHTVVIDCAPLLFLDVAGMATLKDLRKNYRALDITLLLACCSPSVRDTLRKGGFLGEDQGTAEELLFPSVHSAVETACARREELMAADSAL", "settings": "rat hepatocytes; cited from earlier work"}, "NaSi-1": {"molecular_target": "T3, NaSi-1 (Rattus norvegicus, UniProt Q07782)", "T3 sequence (Q07782 1-595)": "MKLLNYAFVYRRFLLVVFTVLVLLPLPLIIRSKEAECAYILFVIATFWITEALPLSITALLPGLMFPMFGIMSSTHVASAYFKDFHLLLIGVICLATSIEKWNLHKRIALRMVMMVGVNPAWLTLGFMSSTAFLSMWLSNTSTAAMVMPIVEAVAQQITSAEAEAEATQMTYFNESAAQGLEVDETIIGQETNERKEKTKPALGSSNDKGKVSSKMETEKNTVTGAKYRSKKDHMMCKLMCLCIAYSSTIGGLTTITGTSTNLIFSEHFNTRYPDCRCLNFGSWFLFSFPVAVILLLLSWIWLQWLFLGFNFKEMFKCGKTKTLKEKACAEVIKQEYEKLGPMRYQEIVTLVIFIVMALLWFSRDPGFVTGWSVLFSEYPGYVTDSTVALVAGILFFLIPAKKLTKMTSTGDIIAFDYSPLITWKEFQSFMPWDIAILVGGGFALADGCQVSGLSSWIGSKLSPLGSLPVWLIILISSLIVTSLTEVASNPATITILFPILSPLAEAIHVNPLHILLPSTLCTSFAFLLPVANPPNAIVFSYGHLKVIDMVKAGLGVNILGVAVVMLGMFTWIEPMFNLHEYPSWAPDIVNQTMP", "settings": "rat kidney and small intestine; cited from earlier work"}, "SUT-1": {"molecular_target": "T4, SUT-1 (Homo sapiens, UniProt Q9UKG4)", "T4 sequence (Q9UKG4 1-626)": "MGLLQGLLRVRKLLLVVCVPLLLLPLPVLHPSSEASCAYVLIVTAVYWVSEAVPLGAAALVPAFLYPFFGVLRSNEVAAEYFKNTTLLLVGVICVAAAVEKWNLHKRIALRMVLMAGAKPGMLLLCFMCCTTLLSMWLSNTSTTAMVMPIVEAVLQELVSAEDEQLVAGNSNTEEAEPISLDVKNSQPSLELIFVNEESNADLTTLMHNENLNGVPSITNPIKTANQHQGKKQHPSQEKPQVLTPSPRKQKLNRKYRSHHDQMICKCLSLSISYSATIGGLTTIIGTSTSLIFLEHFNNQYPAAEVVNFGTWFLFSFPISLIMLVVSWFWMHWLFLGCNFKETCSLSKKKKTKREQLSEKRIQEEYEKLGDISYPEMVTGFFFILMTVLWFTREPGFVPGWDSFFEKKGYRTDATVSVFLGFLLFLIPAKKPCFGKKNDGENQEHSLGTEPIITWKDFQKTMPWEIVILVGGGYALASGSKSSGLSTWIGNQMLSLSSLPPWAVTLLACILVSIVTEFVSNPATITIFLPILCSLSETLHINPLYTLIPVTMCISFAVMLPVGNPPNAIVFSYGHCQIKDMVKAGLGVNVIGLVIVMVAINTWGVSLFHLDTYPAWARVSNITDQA", "settings": "cited from earlier work"}, "DTD": {"molecular_target": "T5, DTD (Homo sapiens, UniProt P50443)", "T5 sequence (P50443 1-739)": "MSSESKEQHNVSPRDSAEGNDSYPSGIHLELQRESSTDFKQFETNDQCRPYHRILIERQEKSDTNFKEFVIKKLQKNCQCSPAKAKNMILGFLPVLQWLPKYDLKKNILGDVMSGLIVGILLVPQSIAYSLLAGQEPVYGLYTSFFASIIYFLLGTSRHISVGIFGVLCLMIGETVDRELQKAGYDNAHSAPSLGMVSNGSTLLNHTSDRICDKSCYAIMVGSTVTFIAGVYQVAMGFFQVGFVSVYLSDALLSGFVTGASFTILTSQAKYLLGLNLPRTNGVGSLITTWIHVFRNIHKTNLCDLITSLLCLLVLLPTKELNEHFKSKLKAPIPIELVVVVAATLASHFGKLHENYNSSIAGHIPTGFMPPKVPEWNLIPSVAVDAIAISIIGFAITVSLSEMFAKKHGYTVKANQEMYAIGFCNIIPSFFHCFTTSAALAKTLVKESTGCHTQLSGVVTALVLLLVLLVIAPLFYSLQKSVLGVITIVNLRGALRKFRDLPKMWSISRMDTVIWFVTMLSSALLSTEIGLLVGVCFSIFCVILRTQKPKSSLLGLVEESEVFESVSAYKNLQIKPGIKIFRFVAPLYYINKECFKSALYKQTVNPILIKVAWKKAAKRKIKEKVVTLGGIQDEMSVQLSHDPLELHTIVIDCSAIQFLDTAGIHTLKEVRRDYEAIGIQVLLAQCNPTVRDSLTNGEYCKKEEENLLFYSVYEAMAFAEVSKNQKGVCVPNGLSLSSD", "settings": "cited from earlier work"}, "DRA": {"molecular_target": "T6, DRA (Homo sapiens, UniProt P40879)", "T6 sequence (P40879 1-764)": "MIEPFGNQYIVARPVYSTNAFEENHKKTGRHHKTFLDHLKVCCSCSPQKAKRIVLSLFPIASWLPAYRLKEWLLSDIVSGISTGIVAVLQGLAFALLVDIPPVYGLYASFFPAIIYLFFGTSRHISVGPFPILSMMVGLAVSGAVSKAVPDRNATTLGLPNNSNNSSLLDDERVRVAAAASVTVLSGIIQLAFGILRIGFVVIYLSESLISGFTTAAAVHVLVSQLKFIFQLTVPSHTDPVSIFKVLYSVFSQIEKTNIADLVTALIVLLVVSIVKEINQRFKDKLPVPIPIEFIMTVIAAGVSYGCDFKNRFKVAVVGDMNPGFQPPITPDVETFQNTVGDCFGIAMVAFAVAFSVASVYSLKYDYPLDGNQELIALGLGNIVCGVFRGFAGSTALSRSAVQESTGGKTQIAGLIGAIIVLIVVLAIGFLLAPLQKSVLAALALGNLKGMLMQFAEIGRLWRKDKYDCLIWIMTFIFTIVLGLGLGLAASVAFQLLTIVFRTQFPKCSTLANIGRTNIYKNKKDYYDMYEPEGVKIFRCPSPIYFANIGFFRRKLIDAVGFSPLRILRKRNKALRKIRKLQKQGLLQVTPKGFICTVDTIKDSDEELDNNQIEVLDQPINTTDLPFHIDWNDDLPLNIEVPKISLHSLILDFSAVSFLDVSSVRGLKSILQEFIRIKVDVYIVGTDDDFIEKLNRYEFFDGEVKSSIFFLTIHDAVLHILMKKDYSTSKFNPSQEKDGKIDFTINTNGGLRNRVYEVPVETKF", "settings": "cited from earlier work"}, "selectins": {"test_system": "selectins", "settings": "cited from earlier work"}},
  "note": "“Also recorded” adds a separate entry of the source.",
  "data": [
    {"compound": "O=S(=O)(O)c1cc(N=C=S)ccc1C=Cc1ccc(N=C=S)cc1S(=O)(=O)O", "note": "[DIDS, 4,4′-diisothiocyanostilbene-2,2′-disulfonic acid]", "values": [
      {"measurement": "inhibition of SUT-3-mediated sulfate uptake", "setting": "SUT-3", "result": "sensitive; also recorded: efficiently inhibited"},
      {"measurement": "sensitivity of SAT-1 sulfate transport to DIDS", "setting": "SAT-1", "result": "sensitive"},
      {"measurement": "sensitivity of NaSi-1 sulfate transport to DIDS", "setting": "NaSi-1", "result": "resistant"},
      {"measurement": "sensitivity of SUT-1 sulfate transport to DIDS", "setting": "SUT-1", "result": "resistant"},
      {"measurement": "sensitivity of DTD to DIDS", "setting": "DTD", "result": "sensitive"},
      {"measurement": "sensitivity of DRA to DIDS", "setting": "DRA", "result": "sensitive"}
    ]},
    {"compound": "COc1cc2c(c(OC)c1OC)-c1ccc(OC)c(=O)cc1[C@@H](NC(C)=O)CC2", "note": "[colchicine]", "values": [
      {"measurement": "endothelial expression of selectins", "setting": "selectins", "result": "downregulate"}
    ]}
  ]
}
